The values below come from PubChem BioAssay (NCI).

Structures are written as SMILES.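 Cultured in 96-well plates, cells were exposed to test compound for 48 hours across five concentrations. TGI is the concentration that stops growth completely.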

Among the test systems are A498 renal; SK-MEL-2 melanoma; ACHN renal; SR leukemia; M14 melanoma; SK-MEL-5 melanoma; NCI-H23 lung; RXF 393 renal; OVCAR-3 ovarian; CAKI-1 renal; SF-268 CNS; SF-295 CNS; SNB-75 CNS; EKVX NSCLC; CCRF-CEM leukemia; 786-0 renal; UACC-62 melanoma; PC-3 prostate; MDA-MB-231 breast; NCI/ADR-RES ovarian.
Test in all cases: inhibition of tumour cell growth, NCI panel, 48 h

In the case of `COc1ccc2[nH]c3c(C)cc([N+](=O)[O-])c(C)c3c2c1`, the TGI worked out at 59.6 µM in the assay with A498 renal; 46 µM with SK-MEL-2 melanoma; 63.1 µM with ACHN renal; 58.5 µM in the assay on SR leukemia; 53.2 µM in the assay with M14 melanoma; 88.4 µM in the assay on SK-MEL-5 melanoma. The TGI is more than 100 µM in the assay with NCI-H23 lung; 41.9 µM with RXF 393 renal; more than 100 µM in the assay with OVCAR-3 ovarian; more than 100 µM in the assay on CAKI-1 renal; more than 100 µM with SF-268 CNS; more than 100 µM with SF-295 CNS. Besides, the TGI in the assay with SNB-75 CNS was 86.1 µM; in the assay on EKVX NSCLC, more than 100 µM; in the assay with CCRF-CEM leukemia it was 56.4 µM; in the assay with 786-0 renal, more than 100 µM.

With `O=C1CCCCC/C1=C\c1ccccc1`, the TGI in the assay on A498 renal, in the assay on UACC-62 melanoma, with SK-MEL-2 melanoma, in the assay with ACHN renal, in the assay on SR leukemia and in the assay with M14 melanoma was more than 100 µM throughout. Moreover, the TGI in the assay on SK-MEL-5 melanoma, with NCI-H23 lung, in the assay on OVCAR-3 ovarian, with CAKI-1 renal, in the assay with SF-268 CNS and in the assay on PC-3 prostate was more than 100 µM in each case. Further, the TGI in the assay with MDA-MB-231 breast, in the assay on SF-295 CNS, in the assay on SNB-75 CNS, in the assay on EKVX NSCLC and with 786-0 renal was more than 100 µM throughout.

Take `C#CC1(O)CCC2[C@@H]3CCc4cc(Oc5nc(F)nc(-c6c7ccccc7cn6C)n5)ccc4C3CC[C@@]21C` (stereo partly drawn): the TGI was more than 100 µM in the assay on A498 renal; more than 100 µM with UACC-62 melanoma; more than 100 µM with SK-MEL-2 melanoma; more than 100 µM in the assay on ACHN renal; more than 72.6 µM in the assay on SR leukemia; more than 100 µM in the assay on M14 melanoma. For the same compound, the TGI in the assay with NCI-H23 lung, in the assay with RXF 393 renal, with OVCAR-3 ovarian, in the assay on CAKI-1 renal, in the assay on SF-268 CNS and with SF-295 CNS was more than 100 µM in each case. The TGI with SNB-75 CNS was more than 100 µM; in the assay on EKVX NSCLC it was more than 100 µM; with CCRF-CEM leukemia, more than 67 µM; with 786-0 renal, more than 100 µM.

With `COc1ccc(C(=O)N/N=C/c2c(C)n(C)n(-c3ccccc3)c2=O)cc1`, the TGI with A498 renal, with UACC-62 melanoma, in the assay with SK-MEL-2 melanoma, in the assay on ACHN renal, in the assay with SR leukemia and in the assay with M14 melanoma was more than 100 µM in each case. Further, the TGI in the assay with NCI-H23 lung, in the assay with RXF 393 renal, with OVCAR-3 ovarian, in the assay on SF-268 CNS, in the assay with SF-295 CNS and in the assay on SNB-75 CNS was more than 100 µM throughout. The TGI with EKVX NSCLC, in the assay on CCRF-CEM leukemia and in the assay on 786-0 renal was more than 100 µM throughout.

For `COc1cc2c(cc1C1=NC(C)(C)CO1)OCO2`, the TGI in the assay on UACC-62 melanoma, in the assay with SK-MEL-2 melanoma, in the assay on ACHN renal, with SR leukemia, with M14 melanoma and in the assay on SK-MEL-5 melanoma was more than 100 µM throughout. Moreover, the TGI in the assay with NCI-H23 lung, in the assay on RXF 393 renal, with OVCAR-3 ovarian, in the assay with CAKI-1 renal, in the assay with SF-268 CNS and in the assay on SF-295 CNS was more than 100 µM throughout. In addition, the TGI with SNB-75 CNS, in the assay on EKVX NSCLC, in the assay with CCRF-CEM leukemia and in the assay with 786-0 renal was more than 100 µM in each case.

`O=c1[nH]c(=O)n(C2OC(CO)C(O)C2O)cc1OCC(F)(F)F` (stereo not drawn): the TGI in the assay on A498 renal, in the assay on UACC-62 melanoma, with SK-MEL-2 melanoma, with ACHN renal, in the assay on SR leukemia and in the assay on M14 melanoma was more than 100 µM each time. Moreover, the TGI in the assay with SK-MEL-5 melanoma, in the assay on NCI-H23 lung, in the assay on RXF 393 renal, in the assay with OVCAR-3 ovarian, with CAKI-1 renal and in the assay on SF-268 CNS was more than 100 µM in each case. For the same compound, the TGI with SF-295 CNS, in the assay on SNB-75 CNS, in the assay with EKVX NSCLC, in the assay with CCRF-CEM leukemia and in the assay with 786-0 renal was more than 100 µM in each case.

Take `CCn1c2ccccc2c2ccc(C3C(C(=O)OC)=C(C)NC(C)=C3C(=O)OC)cc21`: the TGI in the assay with A498 renal is 46 µM; in the assay with UACC-62 melanoma, more than 100 µM; in the assay on ACHN renal, more than 100 µM; in the assay with SR leukemia, more than 100 µM; with SK-MEL-5 melanoma, more than 100 µM; in the assay on NCI-H23 lung it was more than 100 µM. The TGI is 49.4 µM with RXF 393 renal; more than 100 µM with OVCAR-3 ovarian; more than 100 µM in the assay on CAKI-1 renal; more than 100 µM in the assay on NCI/ADR-RES ovarian; more than 100 µM in the assay on SF-268 CNS; more than 100 µM with MDA-MB-231 breast. Also, the TGI with SF-295 CNS, in the assay with SNB-75 CNS, in the assay with EKVX NSCLC, with CCRF-CEM leukemia and with 786-0 renal was more than 100 µM throughout.

With `CC(=O)NNc1nc(C)c(C(=O)NNC(=O)C(=O)Nc2ccc([N+](=O)[O-])cc2C#N)s1`, the TGI with A498 renal, with UACC-62 melanoma, with SK-MEL-2 melanoma, in the assay on ACHN renal, in the assay on SR leukemia and with M14 melanoma was more than 100 µM throughout. The TGI in the assay on SK-MEL-5 melanoma, with NCI-H23 lung, with OVCAR-3 ovarian, in the assay with SF-268 CNS, with EKVX NSCLC and in the assay on CCRF-CEM leukemia was more than 100 µM throughout. In the assay with 786-0 renal, this compound registered a TGI of more than 100 µM.

In the case of `CC(C)(C)OC(=O)c1cccnc1/C=N/O`, the TGI in the assay with UACC-62 melanoma, with SK-MEL-2 melanoma, with ACHN renal, in the assay on SR leukemia, in the assay with M14 melanoma and in the assay with SK-MEL-5 melanoma was more than 100 µM each time. Besides, the TGI in the assay on NCI-H23 lung, with RXF 393 renal, in the assay with OVCAR-3 ovarian, with CAKI-1 renal, in the assay on SF-268 CNS and with SF-295 CNS was more than 100 µM throughout. Moreover, the TGI in the assay on SNB-75 CNS, with EKVX NSCLC, in the assay on CCRF-CEM leukemia and in the assay with 786-0 renal was more than 100 µM each time.
